Measurements published in patent US20030073731A1, “Compositions and methods of the use thereof achiral analogues of CC-1065 and the duocarmycins” (priority 2000, published 2003).

Tests used:
CAKI-1 = test: cells; conditions: Homo sapiens
MCF7 = test: cells; conditions: Homo sapiens
EKVX = test: cells; conditions: Homo sapiens
[1] = system: human colon adenocarcinoma cell line, LS 174T; test: cells; conditions: LS174T
Experimental: Cells were seeded in 96-well microtiter plates at densities of 1000 cells/well. The optimal seeding density was determined to ensure exponential growth in control wells throughout the experimental period and to obtain a linear relationship between absorbance at 492 nm and cell number when analyzed by the sulforhodamine B (SRB) assay (43). 24 hours after seeding the cells were incubated for 1 hour or continuously for 3 days with the drugs (concentration range 0.01 to 500 pM). The cells were washed once and then incubated in drug free medium for 6 days. At the end of the incubation cell growth was determined by the SRB assay, which quantifies viable cells by measuring their total cellular protein content. […] Similar studies were conducted against the growth of PC3 (human prostate cancer cells) and MCF-7 (human breast cancer cells).

HCT-116 = test: cells; conditions: Homo sapiens
SK-OV-3 = test: cells; conditions: Homo sapiens
HCC-2998 = test: cells; conditions: Homo sapiens
M14 = test: cells; conditions: Homo sapiens
OVCAR-3 = test: cells; conditions: Homo sapiens
NCI-H226 = test: cells; conditions: Homo sapiens

4-(2-Chloroethyl)-3-[5-(5-benzofuran-2-carboxamido)indole-2-carboxamido]phenol [Compound 1]
GI50 (CCRF-CEM): 1260 nM | TGI (CCRF-CEM): 5.28E-06 Molar | GI50 (HOP-62): 453 nM | TGI (HOP-62): 3.07E-06 Molar | GI50 (UACC-257): 1880 nM | TGI (UACC-257): 3.40E-06 Molar | GI50 (SF-539): 1920 nM | TGI (SF-539): 4.16E-06 Molar | GI50 (TK-10): 2450 nM | TGI (TK-10): 5.85E-06 Molar

COC(=O)c1[nH]c2c(O)cc(NC(=O)c3cc4cc(OC)c(OC)c(OC)c4[nH]3)c(CCCl)c2c1C(=O)OC [Compound 22, Dimethyl 4-(2-chloroethyl)-7-hydroxy-5-(5,6,7-trimethoxyindole-2-carboxamido)indole-2,3-dicarboxylate]
GI50 (CAKI-1; CAKI-1): 147 nM | CC50 (CAKI-1; CAKI-1, read-out: LC50): > 50000 nM | GI50 (MCF7; MCF7): 22.4 nM | CC50 (MCF7; MCF7, read-out: LC50): 47500 nM | GI50 (EKVX): 164 nM | CC50 (EKVX; read-out: LC50): 3250 nM | IC50 [1]: 4 nM | IC50 ([1]; 1 h): 1860 nM | GI50 (HCT-116; HCT-116): 65.6 nM | CC50 (HCT-116; HCT-116, read-out: LC50): 33200 nM | GI50 (SK-OV-3; SK-OV-3): 269 nM | CC50 (SK-OV-3; SK-OV-3, read-out: LC50): 44600 nM | GI50 (HCC-2998; HCC 2998): 102 nM | CC50 (HCC-2998; HCC 2998, read-out: LC50): 10800 nM | GI50 (M14; M14): 76.4 nM | CC50 (M14; M14, read-out: LC50): 368 nM | GI50 (OVCAR-3; OVCAR-3): 139 nM | CC50 (OVCAR-3; OVCAR-3, read-out: LC50): 23000 nM | GI50 (NCI-H226; NCI-H226): 74.8 nM | CC50 (NCI-H226; NCI-H226, read-out: LC50): 2550 nM
